The text below walks through data of PubChem BioAssay AID330 (DTP/NCI, 2004).

This assay deals with P388 leukemia ip, CD2F1 mice, survival T/C. Briefly: NCI In Vivo Anticancer Drug Screen. Data for tumor model P388 Leukemia (intraperitoneal) in CD2F1 (CDF1) mice. Particulars: endpoint: median survival time, higher = longer survival. The essentials:
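Mice carrying the transplanted tumor received test compound or vehicle. Survival was recorded in each group, and the value is the treated-group measurement divided by that of the vehicle-treated control group.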

Where [1] appears, read: dose: 25.0 mg/kg/injection, schedule: Q01DX009 (ip), vehicle: Klucel (hydroxypropylcellulose) (HPC).
Where [2] appears, read: dose: 50.0 mg/kg/injection, schedule: Q01DX009 (ip), vehicle: Klucel (hydroxypropylcellulose) (HPC).
Setting [3] is: dose: 100.0 mg/kg/injection, schedule: Q01DX009 (ip), vehicle: Klucel (hydroxypropylcellulose) (HPC).
[4] abbreviates: dose: 25.0 mg/kg/injection, schedule: Q01DX005 (ip), vehicle: Klucel (hydroxypropylcellulose) (HPC).
The mark [5] stands for this setting: dose: 50.0 mg/kg/injection, schedule: Q01DX005 (ip), vehicle: Klucel (hydroxypropylcellulose) (HPC).
Setting [6] is: dose: 100.0 mg/kg/injection, schedule: Q01DX005 (ip), vehicle: Klucel (hydroxypropylcellulose) (HPC).
Where [7] appears, read: dose: 200.0 mg/kg/injection, schedule: Q01DX009 (ip), vehicle: Klucel (hydroxypropylcellulose) (HPC).
The mark [8] stands for this setting: dose: 100.0 mg/kg/injection, schedule: Q04DX002 (ip), vehicle: saline.
[9] abbreviates: dose: 60.0 mg/kg/injection, schedule: Q01DX005 (ip), vehicle: saline with Tween-80.
Where [10] appears, read: dose: 120.0 mg/kg/injection, schedule: Q01DX005 (ip), vehicle: saline with Tween-80.
The mark [11] stands for this setting: dose: 240.0 mg/kg/injection, schedule: Q01DX005 (ip), vehicle: saline with Tween-80.

Values joined by “and” are separate entries in the source; they are usually repeats but may differ in a detail not shown here. Equal entries are not always repeated. Inconclusive results and toxic doses are left out.

Regarding `O=P(c1ccccc1)(c1ccccc1)c1ccccc1.O=P(c1ccccc1)(c1ccccc1)c1ccccc1.O=S(=O)(O)O.[Ni]`, the T/C (dose: 6.25 mg/kg/injection, schedule: Q01DX009 (ip), vehicle: Klucel (hydroxypropylcellulose) (HPC)) was 99 % of control; the T/C (dose: 12.5 mg/kg/injection, schedule: Q01DX009 (ip), vehicle: Klucel (hydroxypropylcellulose) (HPC)) is 111 % of control; the T/C under setting [1] was 107 % of control.

On to `Cc1ccc2c(c1)Sc1c(ccc3ccccc13)N2`, for which the T/C by setting is: (dose: 50.0 mg/kg/injection, schedule: Q01DX005 (ip), vehicle: saline with Tween-80) 103 % of control; (dose: 100.0 mg/kg/injection, schedule: Q01DX005 (ip), vehicle: saline with Tween-80) 102 % of control; (dose: 200.0 mg/kg/injection, schedule: Q01DX005 (ip), vehicle: saline with Tween-80) 97 % of control.

As to `CCOC(=O)N1C=CC2Oc3c(Cl)c(Cl)c(Cl)c(Cl)c3OC2C=N1` (configuration not stated), the T/C runs as follows: (dose: 60.0 mg/kg/injection, schedule: Q01DX005 (ip), vehicle: Klucel (hydroxypropylcellulose) (HPC)) 102 % of control; (dose: 120.0 mg/kg/injection, schedule: Q01DX005 (ip), vehicle: Klucel (hydroxypropylcellulose) (HPC)) 101 % of control; (dose: 240.0 mg/kg/injection, schedule: Q01DX005 (ip), vehicle: Klucel (hydroxypropylcellulose) (HPC)) 101 % of control.

On to `FC(F)(F)c1ccccc1NC(=S)SCc1ccco1`, for which the T/C runs as follows: (dose: 50.0 mg/kg/injection, schedule: Q01DX009 (ip), vehicle: suspension in saline) 93 % of control; (dose: 100.0 mg/kg/injection, schedule: Q01DX009 (ip), vehicle: suspension in saline) 93 % of control.

As to `CN(C)C(C#N)C(=O)c1ccccc1` (configuration not stated), the T/C was 107 % of control under setting [1], 110 % of control under setting [2] and 104 % of control under setting [3].

As to `COc1cc(/C=C\C(=O)c2cccc(O)c(=O)c2)cc(OC)c1OC`, the T/C under setting [2] is 112 % of control and the T/C under setting [3] is 87 % of control.

In the case of `Cc1nc2cc3c(cc2n2cccc12)oc1ccccc13`, the T/C was 88 % of control under setting [4], 96 % of control under setting [5] and 86 % of control under setting [6].

Regarding `CCCCN(Cc1ccccc1)CC(O)CN=Cc1ccc(C=NCC(O)CN(CCCC)Cc2ccccc2)cc1` (configuration not stated), the T/C is 102 % of control (dose: 50.0 mg/kg/injection, schedule: Q01DX005 (ip), vehicle: saline + Tween-80 + alcohol); 107 % of control (dose: 100.0 mg/kg/injection, schedule: Q01DX005 (ip), vehicle: saline + Tween-80 + alcohol); 98 % of control (dose: 200.0 mg/kg/injection, schedule: Q01DX005 (ip), vehicle: saline + Tween-80 + alcohol).

With `CCOC(=O)NC(=S)C1=C(N2CCOCC2)CCC1`, the T/C runs as follows: under setting [2], 106 % of control; under setting [3], 122 % of control; under setting [7], 97 % of control.

Take `CCC1CN1P(=O)(N(CC)CC)N1CC1CC` (configuration not stated): the T/C runs as follows: (dose: 50.0 mg/kg/injection, schedule: Q01DX009 (ip), vehicle: saline) 109 % of control; (dose: 100.0 mg/kg/injection, schedule: Q01DX009 (ip), vehicle: saline) 170 % of control.

On to `FC(F)(F)C1(C(F)(F)F)OI2(Br)(OC(C(F)(F)F)(C(F)(F)F)c3ccccc32)c2ccccc21`, for which the T/C is, setting by setting: (dose: 6.25 mg/kg/injection, schedule: Q01DX005 (ip), vehicle: Klucel (hydroxypropylcellulose) (HPC)) 99 % of control; (dose: 12.5 mg/kg/injection, schedule: Q01DX005 (ip), vehicle: Klucel (hydroxypropylcellulose) (HPC)) 97 % of control.

In the case of `NC(=O)NN(Cc1ccc2c(c1)OCO2)N=O`, the T/C reads like this: under setting [2], 99 % of control; under setting [3], 107 % of control; under setting [7], 91 % of control.

Take `CC(C)CC1([N+](=O)[O-])CN(C)CC2CCCCN2C1` (configuration not stated): the T/C reads like this: (dose: 25.0 mg/kg/injection, schedule: Q04DX002 (ip), vehicle: water) 102 % of control; (dose: 50.0 mg/kg/injection, schedule: Q04DX002 (ip), vehicle: water) 107 % of control; under setting [8], 102 % of control; (dose: 100.0 mg/kg/injection, schedule: Q04DX002 (ip), vehicle: water) 99 % of control.

With `CN(C)CCn1c2ccccc2c2cc([N+](=O)[O-])ccc21`, the T/C is, setting by setting: under setting [2], 102 % of control; under setting [3], 105 % of control; under setting [7], 108 % of control.

Consider `COc1cc(C(=O)C2OC2c2ccc(Cl)cc2)c([N+](=O)[O-])cc1OC` (configuration not stated), for which the T/C by setting is: under setting [5], 93 % of control; under setting [6], 98 % of control; (dose: 200.0 mg/kg/injection, schedule: Q01DX005 (ip), vehicle: Klucel (hydroxypropylcellulose) (HPC)) 96 % of control.

Regarding `CCOC(=O)[C@]12CCC[C@@]1(O)NC(=O)c1cnccc12`, the T/C is, setting by setting: (dose: 100.0 mg/kg/injection, schedule: Q04DX003 (ip), vehicle: saline with Tween-80) 100 % of control; (dose: 200.0 mg/kg/injection, schedule: Q04DX003 (ip), vehicle: saline with Tween-80) 97 % of control; (dose: 400.0 mg/kg/injection, schedule: Q04DX003 (ip), vehicle: saline with Tween-80) 93 % of control.

As for `O=c1oc2cc(Cl)cnc2n1-c1ccccc1`, the T/C reads like this: (dose: 100.0 mg/kg/injection, schedule: Q01DX001 (ip), vehicle: Klucel (hydroxypropylcellulose) (HPC)) 96 % of control; (dose: 200.0 mg/kg/injection, schedule: Q01DX001 (ip), vehicle: Klucel (hydroxypropylcellulose) (HPC)) 98 % of control; (dose: 400.0 mg/kg/injection, schedule: Q01DX001 (ip), vehicle: Klucel (hydroxypropylcellulose) (HPC)) 90 % of control.

Consider `CCN(CC)CCNc1c(C)cccc1Cl`, for which the T/C is 100 % of control under setting [9] and 100 % of control under setting [10].

As to `COCCn1cc(F)c(=O)[nH]c1=O`, the T/C is, setting by setting: (dose: 30.0 mg/kg/injection, schedule: Q04DX002 (ip), vehicle: saline) 110 % of control; (dose: 60.0 mg/kg/injection, schedule: Q04DX002 (ip), vehicle: saline) 104 % of control; under setting [8], 115 % of control and 121 % of control; (dose: 120.0 mg/kg/injection, schedule: Q04DX002 (ip), vehicle: saline) 119 % of control; (dose: 200.0 mg/kg/injection, schedule: Q04DX002 (ip), vehicle: saline) 121 % of control; (dose: 240.0 mg/kg/injection, schedule: Q04DX002 (ip), vehicle: saline) 121 % of control. In addition, where the note is “dose: 400.0 mg/kg/injection, schedule: Q04DX002 (ip), vehicle: saline”, the T/C is 118 % of control and 121 % of control.

As for `O=c1n(-c2ccccc2)c(=O)n2n1C1C3C4CCC1C4(Cl)C32` (configuration not stated), the T/C reads like this: (dose: 100.0 mg/kg/injection, schedule: Q01DX001 (ip), vehicle: saline with Tween-80) 100 % of control; (dose: 200.0 mg/kg/injection, schedule: Q01DX001 (ip), vehicle: saline with Tween-80) 94 % of control; (dose: 400.0 mg/kg/injection, schedule: Q01DX001 (ip), vehicle: saline with Tween-80) 91 % of control.

`COc1ccc(-c2nn(-c3ccccc3)cc2Oc2ccccc2O)cc1`: the T/C was 104 % of control under setting [9], 102 % of control under setting [10] and 96 % of control under setting [11].

In the case of `CC(C)(C)OC(=O)N/N=C\c1ccnc2ccccc12`, the T/C runs as follows: under setting [4], 93 % of control; under setting [5], 96 % of control; under setting [6], 93 % of control.

As for `COC(=O)CSc1nnc(CSc2ccc(Cl)cc2)n1-c1ccccc1`, the T/C runs as follows: under setting [9], 93 % of control; under setting [10], 92 % of control; under setting [11], 96 % of control.

On to `CC(C)NC(=O)OCc1cc(-c2ccccc2)n(C)c1-c1ccccc1`, for which the T/C by setting is: (dose: 6.25 mg/kg/injection, schedule: Q01DX009 (ip), vehicle: distilled water + Tween-80) 104 % of control and 98 % of control; (dose: 12.5 mg/kg/injection, schedule: Q01DX009 (ip), vehicle: distilled water + Tween-80) 107 % of control and 110 % of control and 113 % of control; (dose: 25.0 mg/kg/injection, schedule: Q01DX009 (ip), vehicle: distilled water + Tween-80) 117 % of control and 120 % of control and 122 % of control; (dose: 50.0 mg/kg/injection, schedule: Q01DX009 (ip), vehicle: distilled water + Tween-80) 105 % of control and 114 % of control and 116 % of control; (dose: 100.0 mg/kg/injection, schedule: Q01DX009 (ip), vehicle: distilled water + Tween-80) 92 % of control.

Take `O=C(c1ccc([N+](=O)[O-])cc1)N1CCCSC1=S`: the T/C was 107 % of control under setting [9], 98 % of control under setting [10] and 101 % of control under setting [11].
